Results taken from US12084426B2, “Indazole carboxamides as kinase inhibitors” (BRISTOL-MYERS SQUIBB COMPANY, priority 2018, dated 2024).
Like-named read-outs stand apart in the source and are kept apart here.

Tested on: MLKL phosphorylation in HT29-L23 human colorectal adenocarcinoma cells
Test: MLKL Phosphorylation High-Content Assay
Format: cell-based
Details: necroptosis induced with TNFα, SMAC mimetic and Z-VAD, 6 h, read-out: pMLKL (IC50)
Protocol: MLKL Phosphorylation High-Content Assay
HT29-L23 human colorectal adenocarcinoma cells were maintained in RPMI 1640 medium containing 10% heat-inactivated FBS, 1% Penicillin-Streptomycin and 10 mM HEPES. Cells were seeded at 2,000 cells/well in 384 well tissue culture-treated microplates (Greiner #781090-3B) and incubated at 37° C. (5% CO2/95% O2) for 2 d. On the day of the assay, the cells were treated with test compounds at final concentrations of 6.25 to 0.106 μM for 30 min at 37° C. (5% CO2/95% O2). Necroptosis was induced using a mixture of human TNFα (35 ng/mL) (Peprotech #300-01A), SMAC mimetic (from US 2015/0322111 A1) (700 nM) and Z-VAD (140 nM) (BD pharmingen #51-6936). Following 6 h incubation at 37° C. (5% CO2/95% O2), the cells were fixed with 4% formaldehyde (ACROS 11969-0010) for 15 min at rt, then permeabilized with phosphate buffered saline (PBS) containing 0.2% Triton-X-100 for 10 min. MLKL phosphorylation was detected using anti-MLKL (phospho S358) antibody (Abcam #ab187091) (1:1000 dilution in Blocking Buffer [PBS supplemented with 0.1% BSA]) with ON incubation at 4° C. After washing three times in PBS, goat anti-rabbit Alexa-488 (1:1000 dilution) (Life Technologies, A11008) and Hoechst 33342 (Life Technologies, H3570) (1:2000 dilution) in Blocking Buffer were added for 1 h at rt. Following another three cycles of washes in PBS, the microplates were sealed, and cellular images were acquired in the Cellomics ArrayScan VTI high-content imager equipped with an X1 camera. Fluorescent images were taken using a 10× objective and the 386-23 BGRFRN_BGRFRN and 485-20 BGRFRN_BGRFRN filter sets, for nuclei and MLKL phosphorylation, respectively. The image sets were analyzed using the Compartmental Analysis Bioapplication software (Cellomics). The level of MLKL phosphorylation was quantified as MEAN_CircRingAvgIntenRatio. The maximal inhibitory response was defined by the activity induced by Necls (CAS #: 852391-15-2, 6.25 μM). The IC50 value was defined as the concentration of compound that produces 50% of the maximal inhibition. The data were fitted using the 4-parameter logistic equation to calculate the IC50 and Ymax values.

Work on `CNC(=O)c1n[nH]c2cc(N3CCCC(C(=O)NCCCOc4ccc(F)cc4)C3)ccc12` (centres unmarked) [Example 13, 6-(3-{[3-(4-fluorophenoxy)propyl]carbamoyl}piperidin-1-yl)-N-methyl-1H-indazole-3-carboxamide] yielded an IC50 of 3200 nM.

With `CNC(=O)c1n[nH]c2cc(N3CCCC(C(=O)NCCCOC4CCCCC4)C3)ccc12` (racemic) [Example 9, 6-(3-{[3-(cyclohexyloxy)propyl]carbamoyl}piperidin-1-yl)-N-methyl-1H-indazole-3-carboxamide] the IC50 (Homo sapiens) was 3500 nM.

Compound `CNC(=O)c1n[nH]c2cc(N3CCCC(C(=O)NCc4ccccc4OC(F)(F)F)C3)ccc12` (centres unmarked) [Example 1, N-methyl-6-[3-({[2-(trifluoromethoxy)phenyl]methyl}carbamoyl)piperidin-1-yl]-1H-indazole-3-carboxamide] has an IC50 (Homo sapiens) of 660 nM.

Work on `CNC(=O)c1n[nH]c2cc(N3CCCC(C(=O)NCc4ccccc4OCC4CC4)C3)ccc12` (racemic) [Example 12, 6-[3-({[2-(cyclopropylmethoxy)phenyl]methyl}carbamoyl)piperidin-1-yl]-N-methyl-1H-indazole-3-carboxamide] yielded an IC50 (Homo sapiens) of 290 nM.

Work on `CNC(=O)c1n[nH]c2cc(N3CCN(C)C(C(=O)NCCC(C)c4ccccc4)C3)ccc12` (centres unmarked) [Example 20, N-methyl-6-{4-methyl-3-[(3-phenylbutyl)carbamoyl]piperazin-1-yl}-1H-indazole-3-carboxamide] yielded an IC50 (Homo sapiens) of 2300 nM.

`CNC(=O)c1n[nH]c2cc(N3CCCC(C(=O)NCc4ccccc4Oc4ccccc4)C3)ccc12` (racemic) [Example 8, N-methyl-6-(3-{ [(2-phenoxyphenyl)methyl]carbamoyl}piperidin-1-yl)-1H-indazole-3-carboxamide] was tested, and the IC50 (Homo sapiens) was 110 nM.

`CNC(=O)c1n[nH]c2cc(C3CCCN(C(=O)NCCC(C)c4ccccc4)C3)ccc12` (centres unmarked) [Example 5, N-methyl-6-{1-[(3-phenylbutyl)carbamoyl]piperidin-3-yl}-1H-indazole-3-carboxamide] gave an IC50 (Homo sapiens) of 190 nM.

Compound `CNC(=O)c1n[nH]c2cc(N3CCOC(C(=O)NC4CCCC(c5ccccc5)C4)C3)ccc12` (centres unmarked) [Example 26, N-methyl-6-{2-[(3-phenylcyclohexyl)carbamoyl]morpholin-4-yl}-1H-indazole-3-carboxamide] has an IC50 (Homo sapiens) of 2500 nM.

`CNC(=O)c1n[nH]c2cc(N3CCCC(C(=O)NCC(O)COc4ccccc4)C3)ccc12` (single isomer, unassigned) [Example 7, 6-{3-[(2-hydroxy-3-phenoxypropyl)carbamoyl]piperidin-1-yl}-N-methyl-1H-indazole-3-carboxamide] was tested, and the IC50 was 2200 nM.

In the case of `CNC(=O)c1n[nH]c2cc(N3CCCC(C(=O)Nc4cnn(Cc5ccccc5)c4)C3)ccc12` (centres unmarked) [Example 11, 6-{3-[(1-benzyl-1H-pyrazol-4-yl)carbamoyl]piperidin-1-yl}-N-methyl-1H-indazole-3-carboxamide], the IC50 is reported as 2500 nM.

In the case of `CNC(=O)c1n[nH]c2cc(N3CCOC(C(=O)NCC4CC4c4cccc(F)c4)C3)ccc12` (centres unmarked) [Example 23], the IC50 (Homo sapiens) is reported as 1600 nM.

`CNC(=O)c1n[nH]c2cc(N3CCCC(C(=O)NCCC(O)c4ccc(F)c(F)c4)C3)ccc12` (centres unmarked) [Example 14, 6-(3-{[3-(3,4-difluorophenyl)-3-hydroxypropyl]carbamoyl}piperidin-1-yl)-N-methyl-1H-indazole-3-carboxamide] gave an IC50 (Homo sapiens) of 2400 nM.

`CNC(=O)c1n[nH]c2cc(N3CCCC(C(=O)NCCC(C)c4ccccc4)C3)ccc12` (centres unmarked) [Example 17, N-methyl-6-{3-[(3-phenylbutyl)carbamoyl]piperidin-1-yl}-1H-indazole-3-carboxamide] showed an IC50 (Homo sapiens) of 200 nM.

Work on `CNC(=O)c1n[nH]c2cc(N3CCNC(C(=O)NCCC(C)c4ccccc4)C3)ccc12` (centres unmarked) [Example 4, N-methyl-6-{3-[(3-phenylbutyl)carbamoyl]piperazin-1-yl}-1H-indazole-3-carboxamide] yielded an IC50 (Homo sapiens) of 3200 nM.

Work on `CNC(=O)c1n[nH]c2cc(N3CCCC(C(=O)NCC(O)COc4ccccc4)C3)ccc12` (single isomer, unassigned) [Example 6, 6-{3-[(2-hydroxy-3-phenoxypropyl)carbamoyl]piperidin-1-yl}-N-methyl-1H-indazole-3-carboxamide] yielded an IC50 (Homo sapiens) of 4300 nM.

`CNC(=O)c1n[nH]c2cc(N3CCN(C)C(C(=O)NCCC(O)c4ccccc4)C3)ccc12` (centres unmarked) [Example 18, 6 6-{3-[(3-hydroxy-3-phenylpropyl)carbamoyl]-4-methylpiperazin-1-yl}-N-methyl-1H-indazole-3-carboxamide] was tested, and the IC50 (Homo sapiens) was 2400 nM.

Compound `CNC(=O)c1n[nH]c2cc(N3CCOC(C(=O)NCCC(C)c4ccc(F)cc4)C3)ccc12` (centres unmarked) [Example 24, 6-(2-{[3-(4-fluorophenyl)butyl]carbamoyl}morpholin-4-yl)-N-methyl-1H-indazole-3-carboxamide] has an IC50 (Homo sapiens) of 110 nM.

`CNC(=O)c1n[nH]c2cc(N3CCOC(C(=O)NCCC(O)c4ccc(F)c(F)c4)C3)ccc12` (centres unmarked) [Example 3, 6-(2-{[3-(3,4-difluorophenyl)-3-hydroxypropyl]carbamoyl}morpholin-4-yl)-N-methyl-1H-indazole-3-carboxamide] showed an IC50 (Homo sapiens) of 4300 nM.

For `CNC(=O)c1n[nH]c2cc(N3CCN(C)C(C(=O)NCCC(C)c4ccc(F)cc4)C3)ccc12` (centres unmarked) [Example 19, 6-(3-{[3-(4-fluorophenyl)butyl]carbamoyl}-4-methylpiperazin-1-yl)-N-methyl-1H-indazole-3-carboxamide], the IC50 (Homo sapiens) was 690 nM.

`CNC(=O)c1n[nH]c2cc(N3CCOC(C(=O)NCCC(C)c4ccccc4)C3)ccc12` (centres unmarked) [Example 22, N-methyl-6-{2-[(3-phenylbutyl)carbamoyl]morpholin-4-yl}-1H-indazole-3-carboxamide] gave an IC50 (Homo sapiens) of 440 nM.

Work on `CNC(=O)c1n[nH]c2cc(N3CCOC(C(=O)Nc4cnn(Cc5ccccc5)c4)C3)ccc12` (racemic) [Example 21, 6-{2-[(1-benzyl-1H-pyrazol-4-yl)carbamoyl]morpholin-4-yl}-N-methyl-1H-indazole-3-carboxamide] yielded an IC50 (Homo sapiens) of 1200 nM.

Work on `CNC(=O)c1n[nH]c2cc(N3CCN(C)C(C(=O)NCc4ccccc4OC)C3)ccc12` (centres unmarked) [Example 2, 6-(3-{[(2-methoxyphenyl)methyl]carbamoyl}-4-methylpiperazin-1-yl)-N-methyl-1H-indazole-3-carboxamide] yielded an IC50 (Homo sapiens) of over 6200 nM.

In the case of `CNC(=O)c1n[nH]c2cc(N3CCOC(C(=O)NCCC(O)c4ccc(Cl)cc4)C3)ccc12` (centres unmarked) [Example 25, 6-(2-{[3-(4-chlorophenyl)-3-hydroxypropyl]carbamoyl}morpholin-4-yl)-N-methyl-1H-indazole-3-carboxamide], the IC50 (Homo sapiens) is reported as 4500 nM.

`CNC(=O)c1n[nH]c2cc(N3CCCC(C(=O)NC4CCCC(c5ccccc5)C4)C3)ccc12` (racemic) [Example 16, N-methyl-6-{3-[(3-phenylcyclohexyl)carbamoyl]piperidin-1-yl}-1H-indazole-3-carboxamide] was tested, and the IC50 was 3100 nM.

`CNC(=O)c1n[nH]c2cc(N3CCCC(C(=O)NCCC(O)c4ccccc4)C3)ccc12` (centres unmarked) [Example 10, 6-{3-[(3-hydroxy-3-phenylpropyl)carbamoyl]piperidin-1-yl}-N-methyl-1H-indazole-3-carboxamide] gave an IC50 (Homo sapiens) of 3600 nM.

With `CNC(=O)c1n[nH]c2cc(N3CCCC(C(=O)NC4CCCC(c5ccccc5)C4)C3)ccc12` (single isomer, unassigned) [Example 15, N-methyl-6-{3-[(3-phenylcyclohexyl)carbamoyl]piperidin-1-yl}-1H-indazole-3-carboxamide] the IC50 (Homo sapiens) was 1900 nM.
